This note sets out measurements from US20100256357A1, “HETEROCYCLES USEFUL AS INHIBITORS OF CARBONIC ANHYDRASE” (Agouron Pharmaceuticals, Inc., priority 2006, published 2010).

In test [1] the target is T1, human CA-II (Homo sapiens, UniProt P00918).
T1 construct: purchased Sigma-Aldrich C6165
The experiment in a line: Carbonic Anhydrase-II (CA-II) Fluorescence Polarization Tight Binding Assay-Kd Determination. Conditions: for Kd: read-out: CA-II Kd; for inhibition at 0.0025 µM: inhibitor concentration 2.5 nM. As for the experimental part:
Assays were conducted in a final volume of 100 μL in 50 mM Tris/HCl (pH 7.6), 100 mM Na2SO4 and 0.005% Tween-20 in a 96-well black assay plate. […] The assay plate was
The Kd binding was calculated using GraphPad Prism and Morrison tight binding ligand equation.

For test [2], the target named is T1, human CA-II. The experiment in a line: Carbonic Anhydrase-II (CA-II) Fluorimetric Assay-IC50 Determination. The format is biochemical. Conditions: read-out: CAII % Inh @ Min dose; for inhibition at 0.1 µM: CA II Min dose 100 nM; for inhibition at 0.0025 µM: Min dose 2.5 nM; for inhibition at 0.01 µM: CA II Min dose 10 nM. In outline:
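Compounds were tested as an 11-point, 1:3 dilution series in duplicate, with a top final concentration of 1 μM, in 50 mM Tris/HCl pH 7.6, 100 mM Na2SO4 and 0.005% Tween-20. Human CA-II activity was followed as the rate of fluorescein diacetate hydrolysis at 25° C, with excitation at 488 nm and emission at 538 nm.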

The next test has as its target T2, human CA-IV (Homo sapiens, UniProt P22748).
T2 construct: made in house; host or cells: Escherichia coli BL21(DE3)
Put plainly: Carbonic Anhydrase-IV (CA-IV) Fluorescence Polarization Assay-IC50 Determination. The format is binding. Conditions: for inhibition at 0.2 µM: read-out: CA-IV: % Inh @ Min dose; for IC50: read-out: CA-IV IC50. As for the experimental part:
Carbonic Anhydrase-IV (CA-IV) Fluorescence Polarization Assay-IC50 Determination
These cells were grown in Luria broth (LB) media (Biomyx) supplemented with 800 uM ZnCl2 at 37° C. until an O.D.600 of 0.7, at which point the cells were induced with 100 uM isopropyl-beta-D-thiogalactopyranoside (IPTG) for 20 hours at 20° C. The frozen pellet was resuspended in 50mM 2-morpholinoethanesulfonic acid (MES) at pH 6.0, 100 mM NaCl, 800 uM ZnCl2 and EDTA-Free protease inhibitors (Roche). The cells were lysed with a microfluidizer, the lysate was spun at 40,000 rpm for 45 minutes at 4° C., and the soluble fraction was dialyzed overnight at 4° C. in 50 mM MES pH 6.0, and 100 mM NaCl. The soluble fraction was then put over a 100 ml SP-Sepharose High Performance (GE Healthcare) column and eluted with a 50 mM MES pH 6.0, 750 mM NaCl gradient. The peak fractions were then concentrated, via an Amicon Ultra-4 10,000 MWCO (Millipore) spin column to 2.0 mL and loaded onto a Sephacryl S-100 High Resolution (GE Healthcare) column in 25 mM tris(hydroxymethyl)aminomethane hydrochloride (Tris-HCl) pH 7.0, and 100 mM NaCl. The peak fractions were then concentrated, via an Amicon Ultra-4 10,000 MWCO (Millipore) spin column, to 7.0 mg/mL and left exposed at room temperature overnight. […] T.; et al. Carbonic Anhydrase Inhibitors. Med. Res. Rev. […]
Assays were conducted in a final volume of 100 μL in 50 mM Tris/HCl (pH 7.6), 100 mM Na2SO4 and 0.005% Tween-20 in a 96-well black assay plate.

Read-outs that look alike come from different tables or passages of the source.

T2 sequence (P22748 19-284 limits assumed): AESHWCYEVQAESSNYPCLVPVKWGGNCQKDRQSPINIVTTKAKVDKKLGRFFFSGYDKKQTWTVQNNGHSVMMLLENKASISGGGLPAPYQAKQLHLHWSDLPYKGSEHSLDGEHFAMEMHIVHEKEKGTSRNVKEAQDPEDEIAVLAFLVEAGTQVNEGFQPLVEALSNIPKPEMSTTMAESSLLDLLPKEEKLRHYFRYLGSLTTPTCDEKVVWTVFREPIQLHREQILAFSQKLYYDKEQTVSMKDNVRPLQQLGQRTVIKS

Take `NS(=O)(=O)c1ccc(-n2nc(C(=O)NCc3n[nH]c4c3CCC4)nc2Cc2ccccc2)cc1` [Example R-11, 1-[4-(aminosulfonyl)phenyl]-5-benzyl-N-(1456-tetrahydrocyclopenta[c]pyrazol-3-ylmethyl)-1H-124-triazole-3-carboxamide]: the dissociation constant Kd on human CA-II [1] came to 0.091 nM. Moreover, at human CA-II [2], the inhibition at 0.1 µM was 99%. The inhibition at 0.2 µM on human CA-IV (CA-IV Min dose 200 nM) turned out to be 64.7%. Moreover, the IC50 at human CA-IV was found to be 202 nM.

As for `NS(=O)(=O)c1ccc(-c2nc(C(F)(F)F)cn2Cc2cccc(OC(F)F)c2)cc1` [JJJ-4, 4-{1-[3-(difluoromethoxy)benzyl]-4-(trifluoromethyl)-1H-imidazol-2-yl]benzenesulfonamide], the dissociation constant Kd on human CA-II [1] was 1.39 nM. Further, the inhibition at 0.0025 µM on human CA-II [2] came out at 39%. Moreover, the inhibition at 0.2 µM at human CA-IV (Min dose 200 nM) came to 29%. Also, on human CA-IV, the IC50 amounted to 440 nM.

`N#CCCN(C(=O)c1nc(Cc2ccccc2)n(-c2ccc(S(N)(=O)=O)cc2)n1)C1CC1` [Example R-13, 1-[4-(aminosulfonyl)phenyl]-5-benzyl-N-(2-cyanoethyl)-N-cyclopropyl-1H-124-triazole-3-carboxamide]: the dissociation constant (Kd) on human CA-II [1] worked out at 0.644 nM. Besides, the inhibition at 0.1 µM on human CA-II [2] amounted to 100%. Further, the inhibition at 0.2 µM on human CA-IV (CA-IV Min dose 200 nM) worked out at 63.6%. At human CA-IV, the IC50 came to 208 nM.

Regarding `CCCCCN(C)C(=O)c1nc(Cc2ccccc2)n(-c2ccc(S(N)(=O)=O)cc2)n1` [Example R-1, 1-[4-(aminosulfonyl)phenyl]-5-benzyl-N-methyl-N-pentyl-1H-124-triazole-3-carboxamide], the Kd on human CA-II [1] came to 0.56 nM. Moreover, the inhibition at 0.1 µM on human CA-II [2] amounted to 100%. Besides, on human CA-IV (CA-IV Min dose 200 nM), the inhibition at 0.2 µM worked out at 68.6%. On human CA-IV, the IC50 was found to be 86 nM.

Turning to `CCCCN(C)C(=O)c1nc(Cc2ccccc2)n(-c2ccc(S(N)(=O)=O)cc2)n1` [Example R-3, 1-[4-(aminosulfonyl)phenyl]-5-benzyl-N-butyl-N-methyl-1H-124-triazole-3-carboxamide], at human CA-II [1], the Kd was 0.451 nM. Besides, the inhibition at 0.1 µM at human CA-II [2] was determined as 101%. Moreover, on human CA-IV (CA-IV Min dose 200 nM), the inhibition at 0.2 µM came to 66.4%. Moreover, on human CA-IV, the IC50 was determined as 88 nM.

Turning to `CN(CC1CC1)C(=O)c1nc(Cc2ccccc2)n(-c2ccc(S(N)(=O)=O)cc2)n1` [Example R-20, 1-[4-(aminosulfonyl)phenyl]-5-benzyl-N-(cyclopropylmethyl)-N-methyl-1H-124-triazole-3-carboxamide], at human CA-II [1], the Kd is 0.805 nM. Further, the inhibition at 0.1 µM on human CA-II [2] came out at 100%. On human CA-IV (CA-IV Min dose 200 nM), the inhibition at 0.2 µM is 65.2%. Further, at human CA-IV, the IC50 is 355 nM.

As to `CC1(C)COCN1C(=O)c1nc(Cc2ccccc2)n(-c2ccc(S(N)(=O)=O)cc2)n1` [Example R-6, 4-(5-benzyl-3-[(44-dimethyl-13-oxazolidin-3-yl)carbonyl]-1H-124-triazol-1-yl)benzenesulfonamide], the equilibrium dissociation constant (Kd) on human CA-II [1] was 0.325 nM. Besides, the inhibition at 0.01 µM at human CA-II [2] worked out at 97%. In addition, the inhibition at 0.2 µM at human CA-IV (CA-IV Min dose 200 nM) was 58.2%. The IC50 at human CA-IV amounted to 180 nM.

As to `CN(C)[C@H]1CCN(C(=O)c2nc(Cc3ccccc3)n(-c3ccc(S(N)(=O)=O)cc3)n2)C1` [Example R-23, 4-(5-benzyl-3-{[(3S)-3-(dimethylamino)pyrrolidin-1-yl]carbonyl}-1H-124-triazol-1-yl)benzenesulfonamide], the Kd at human CA-II [1] stood at 0.294 nM. For the same compound, at human CA-II [2], the inhibition at 0.1 µM was found to be 99%. For the same compound, the inhibition at 0.2 µM on human CA-IV (CA-IV Min dose 200 nM) stood at 40.3%. Moreover, at human CA-IV, the concentration for half-maximal inhibition (IC50) is 376 nM.

On to `Cc1ccccc1Cn1cc(C(F)(F)F)nc1-c1ccc(S(N)(=O)=O)cc1` [JJJ-3, 4-[1-(2-methylbenzyl)-4-(trifluoromethyl)-1H-imidazol-2-yl]benzenesulfonamide], for which the Kd at human CA-II [1] worked out at 0.369 nM. The inhibition at 0.0025 µM at human CA-II [2] was found to be 47%. Besides, the inhibition at 0.2 µM on human CA-IV (Min dose 200 nM) stood at 36%. Also, the half-maximal inhibitory concentration (IC50) at human CA-IV came to 346 nM.

Regarding `Cc1ccc(C)c(Cn2cc(C(F)(F)F)nc2-c2ccc(S(N)(=O)=O)cc2)c1` [JJJ-1, 4-[1-(25-dimethylbenzyl)-4-(trifluoromethyl)-1H-imidazol-2-yl]benzenesulfonamide], the dissociation constant Kd at human CA-II [1] was found to be 0.608 nM. Also, the inhibition at 0.0025 µM on human CA-II [2] turned out to be 46%. Further, on human CA-IV (Min dose 200 nM), the inhibition at 0.2 µM worked out at 56%. For the same compound, the IC50 on human CA-IV came to 130 nM.

As for `NS(=O)(=O)c1ccc(-n2nc(C(=O)N(CCO)Cc3ccccc3)nc2Cc2ccccc2)cc1` [Example R-2, 1-[4-(aminosulfonyl)phenyl]-N5-dibenzyl-N-(2-hydroxyethyl)-1H-124-triazole-3-carboxamide], the equilibrium dissociation constant (Kd) at human CA-II [1] is 0.621 nM. The inhibition at 0.01 µM on human CA-II [2] is 87%. The inhibition at 0.2 µM at human CA-IV (CA-IV Min dose 200 nM) was 57.7%. The IC50 at human CA-IV is 87 nM.

In the case of `NS(=O)(=O)c1ccc(-n2nc(C(=O)NCC3CCCCC3)nc2Cc2ccccc2)cc1` [Example R-17, 1-[4-(aminosulfonyl)phenyl]-5-benzyl-N-(cyclohexylmethyl)-1H-124-triazole-3-carboxamide], the Kd on human CA-II [1] turned out to be 0.067 nM. On human CA-II [2], the inhibition at 0.1 µM came out at 101%. For the same compound, on human CA-IV (CA-IV Min dose 200 nM), the inhibition at 0.2 µM stood at 56.9%. In addition, at human CA-IV, the 50% inhibitory concentration (IC50) amounted to 242 nM.

Consider `Cc1cc(Cn2cc(C(F)(F)F)nc2-c2ccc(S(N)(=O)=O)cc2)ccc1F` [JJJ-2, 4-[1-(4-fluoro-3-methylbenzyl)-4-(trifluoromethyl)-1H-imidazol-2-yl]benzenesulfonamide], for which the Kd at human CA-II [1] was found to be 0.552 nM. On human CA-II [2], the inhibition at 0.0025 µM was determined as 37%. For the same compound, at human CA-IV (Min dose 200 nM), the inhibition at 0.2 µM was found to be 45%. Further, the half-inhibitory concentration (IC50) on human CA-IV was 309 nM.

`COc1ccc(CCNCc2nc(Cc3ccccc3)n(-c3ccc(S(N)(=O)=O)cc3F)n2)cc1` [Example T-62, 4-[5-benzyl-3-({[2-(4-methoxyphenyl)ethyl]amino}methyl)-1H-124-triazol-1-yl]-3-fluorobenzenesulfonamide]: the inhibition at 0.0025 µM at human CA-II [1] was 51%.

Consider `C[C@H](NCc1nc(Cc2ccccc2)n(-c2ccc(S(N)(=O)=O)cc2F)n1)[C@H](O)c1ccccc1` [Example T-50, 4-[5-benzyl-3-({[(1S2R)-2-hydroxy-1-methyl-2-phenylethyl]amino}methyl)-1H-124-triazol-1-yl]-3-fluorobenzenesulfonamide], for which the inhibition at 0.0025 µM on human CA-II [1] came out at 63%.

For `COc1cccc(CNC(=O)c2nc(Cc3ccccc3)n(-c3ccc(S(N)(=O)=O)cc3)n2)c1` [Example R-22, 1-[4-(aminosulfonyl)phenyl]-5-benzyl-N-(3-methoxybenzyl)-1H-124-triazole-3-carboxamide], the Kd at human CA-II [1] worked out at 0.091 nM. Also, the inhibition at 0.1 µM on human CA-II [2] was determined as 100%. At human CA-IV (CA-IV Min dose 200 nM), the inhibition at 0.2 µM came out at 53.6%. For the same compound, at human CA-IV, the IC50 was 361 nM.

With `CCOc1ccccc1CNCc1nc(Cc2ccccc2)n(-c2ccc(S(N)(=O)=O)cc2F)n1` [Example T-63, 4-(5-benzyl-3-{[(2-ethoxybenzyl)amino]methyl}-1H-124-triazol-1-yl)-3-fluorobenzenesulfonamide], at human CA-II [1], the inhibition at 0.0025 µM was 41%.

As for `Cc1cccc(CCNCc2nc(Cc3ccccc3)n(-c3ccc(S(N)(=O)=O)cc3F)n2)c1` [Example T-66, 4-[5-benzyl-3-({[2-(3-methylphenyl)ethyl]amino}methyl)-1H-124-triazol-1-yl]-3-fluorobenzenesulfonamide], the inhibition at 0.0025 µM on human CA-II [1] was found to be 52%.
